IC50 data for 12 compounds are collected here from patent US20120309750A1, “5-MEMBERED HETEROCYCLE DERIVATIVES AND MANUFACTURING PROCESS THEREOF” (ILDONG PHARM CO., LTD., priority 2010, published 2012).

For experiment [1], the system named is human colorectal cancer cells (HCT116). Kind of experiment: Growth inhibition assay (cytotoxicity) in HCT116. It counts as cell-based. As to conditions: HCT-116. The protocol: (§1) For present invention, the ATPase activity of yeast HSP90 was measured using malachite green assay. Formula I compounds for primary antitumoral activity were treated in human colorectal cancer cells (HCT116) showing increased expression levels of HSP90 client protein and cotoxicity IC50 values was measured as a result.

The next experiment addresses yeast HSP90 (Saccharomyces cerevisiae, UniProt P02829). Briefly: Hsp90 ATPase assay (malachite green). Type of experiment: biochemical. Here is the method:
as §1

The structures appear in SMILES notation.

Chain of yeast HSP90 (P02829 whole entry): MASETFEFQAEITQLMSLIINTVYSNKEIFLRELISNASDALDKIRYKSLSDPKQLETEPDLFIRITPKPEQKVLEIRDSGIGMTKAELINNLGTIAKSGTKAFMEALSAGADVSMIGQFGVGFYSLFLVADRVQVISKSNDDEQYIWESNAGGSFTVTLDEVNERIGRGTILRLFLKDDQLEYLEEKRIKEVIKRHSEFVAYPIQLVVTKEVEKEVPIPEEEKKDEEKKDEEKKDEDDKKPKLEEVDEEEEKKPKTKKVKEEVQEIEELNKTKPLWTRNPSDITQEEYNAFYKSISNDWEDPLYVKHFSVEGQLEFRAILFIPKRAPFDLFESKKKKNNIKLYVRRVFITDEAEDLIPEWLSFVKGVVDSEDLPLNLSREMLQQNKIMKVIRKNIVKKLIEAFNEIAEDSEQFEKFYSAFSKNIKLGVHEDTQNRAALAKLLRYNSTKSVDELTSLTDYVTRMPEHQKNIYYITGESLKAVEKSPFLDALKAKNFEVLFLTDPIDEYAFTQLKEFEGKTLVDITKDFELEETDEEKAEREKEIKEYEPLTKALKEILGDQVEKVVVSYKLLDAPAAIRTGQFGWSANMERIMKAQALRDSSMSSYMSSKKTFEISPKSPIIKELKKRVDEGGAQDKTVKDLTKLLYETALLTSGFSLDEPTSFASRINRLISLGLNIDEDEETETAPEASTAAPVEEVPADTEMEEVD

For `CCNC(=O)c1noc(-c2cc(C(C)C)c(O)cc2O)c1-c1noc(CN2CCCCC2)n1` [Compound I-94, 5-(2,4-Dihydroxy-5-isopropylphenyl)-N-ethyl-4-(5-(piperidin-1-ylmethyl)-1,2,4-oxadiazol-3-yl)isoxazole-3-carboxamide], the IC50 (in experiment [1]; at yeast HSP90) was under 500 nM in each case.
With `CCNC(=O)c1noc(-c2cc(C(C)C)c(O)cc2O)c1-c1cc(CN2CCOCC2)no1` [Compound I-18, 5-(2,4-Dihydroxy-5-isopropylphenyl)-N-ethyl-3′-(morpholinomethyl)-4,5′-biisoxazole-3-carboxamide], the IC50 was under 500 nM in experiment [1] and 500 to 1000 nM on yeast HSP90.
The like results for `CCNC(=O)c1noc(-c2cc(C(C)C)c(O)cc2O)c1-c1ccn(CC)n1` [Compound I-99, 5-(2,4-Dihydroxy-5-isopropylphenyl)-N-ethyl-4-(1-ethyl-1H-pyrazol-3-yl)isoxazole-3-carboxamide] were, in that order, under 500 nM and 500 to 1000 nM.
In the same order, the values of `CCNC(=O)c1noc(-c2cc(C(C)C)c(O)cc2O)c1-c1cc(C(=O)OCC)no1` [Compound I-15, Ethyl 5-(2,4-dihydroxy-5-isopropylphenyl)-3-(ethylcarbamoyl)-4,5′-biisoxazole-3′-carboxylate] are over 1000 nM and under 500 nM.
The like results for `CCNC(=O)c1noc(-c2cc(Cl)c(O)cc2O)c1-c1cc(CO)no1` [Compound I-24, 5-(5-Chloro-2,4-dihydroxyphenyl)-N-ethyl-3′-(hydroxymethyl)-4,5′-biisoxazole-3-carboxamide] were, in that order, over 1000 nM and 500 to 1000 nM.
Take `CCNC(=O)c1noc(-c2cc(C(C)C)c(O)cc2O)c1-c1cc(CN(C)C)no1` [Compound I-41, 5-(2,4-Dihydroxy-5-isopropylphenyl)-3′-((dimethylamino)methyl)-N-ethyl-4,5′-biisoxazole-3-carboxamide]: the 50% inhibitory concentration (IC50) (in experiment [1]; against yeast HSP90) was under 500 nM each time.
Regarding `CCNC(=O)c1noc(-c2cc(C(C)C)c(O)cc2O)c1-c1cnn(CC)c1` [Compound I-104, 5-(2,4-Dihydroxy-5-isopropylphenyl)-N-ethyl-4-(1-ethyl-1H-pyrazol-4-yl)isoxazole-3-carboxamide], the half-inhibitory concentration (IC50) in experiment [1] is under 500 nM; against yeast HSP90, 500 to 1000 nM.
In the same order, the values of `CCNC(=O)c1noc(-c2cc(C(C)C)c(O)cc2O)c1-c1ncon1` [Compound I-66, 5-(2,4-Dihydroxy-5-isopropylphenyl)-N-ethyl-4-(1,2,4-oxadiazol-3-yl)isoxazole-3-carboxamide] are under 500 nM and 500 to 1000 nM.
In the same order, the values of `CCNC(=O)c1noc(-c2cc(C(C)C)c(O)cc2O)c1-c1cc(CN2CCSCC2)no1` [Compound I-47, 5-(2,4-Dihydroxy-5-isopropylphenyl)-N-ethyl-3′-(thiomorpholinomethyl)-4,5′-biisoxazole-3-carboxamide] are under 500 nM and under 500 nM.
For the compound `CCNC(=O)c1noc(-c2cc(C(C)C)c(O)cc2O)c1-c1nnn(C)n1` [Compound I-12, 5-(2,4-Dihydroxy-5-isopropylphenyl)-N-ethyl-4-(2-methyl-2H-tetrazol-5-yl)isoxazole-3-carboxamide], the IC50 (in experiment [1]; against yeast HSP90) was under 500 nM in each case.
For `C=CCO/N=C/c1cc(-c2c(C(=O)NCC)noc2-c2cc(C(C)C)c(O)cc2O)on1` [Compound I-54, 3′-((Allyloxyimino)methyl)-5-(2,4-dihydroxy-5-isopropylphenyl)-N-ethyl-4,5′-biisoxazole-3-carboxamide], the IC50 in experiment [1] is under 500 nM; against yeast HSP90, 500 to 1000 nM.
As to `CCNC(=O)c1noc(-c2cc(C(C)C)c(O)cc2O)c1-c1noc(-c2ccc(OCC)cc2)n1` [Compound I-90, 5-(2,4-Dihydroxy-5-isopropylphenyl)-4-(5-(4-ethoxyphenyl)-1,2,4-oxadiazol-3-yl)-N-ethylisoxazole-3-carboxamide], the IC50 in experiment [1] is over 1000 nM; against yeast HSP90 it was 500 to 1000 nM.

A word on the IC50: it is the midpoint of a concentration-inhibition curve. A lower IC50 goes with greater potency in that assay.
